Results from patent publication US10662218B2, “Analogs of celastrol” (ERX Pharmaceuticals, Inc., priority 2015, dated 2020).
Converted amounts (≈) assume the structure as drawn. “And” between values parts separate entries of the source, which are not always exact repeats. Equal entries are not always repeated. Where two headings read alike, the source gives them in different places.

What was measured:
[1] = test system: C57BL/6 Diet Induced Obese (DIO) mice; experiment: Oral (P.O.) administration study in DIO mice: in vivo activity, body weights; design: species or system mouse; details: for Individual Body Weight: individual male animals; for Body weight, Mean / change in vivo at 2 mg/kg: male; for change in vivo at 2 mg/kg: Mus musculus, po, read-out: Body weight, %-Diff
From the text: The purpose of this study was to assess test articles in the Diet Induced Obese (DIO) mouse.
Male C57BL/6 Diet Induced Obese (DIO) mice were received from Taconic. Animals were acclimated to housing conditions for at least 1 week prior to vehicle acclimation dosing. Animals were acclimated to oral gavage dosing with vehicle once daily for Days 11 through 14 of the predose phase.
At initiation of dosing, animals were 21 to 22 weeks old, and their body weights ranged from 29.8 to 40.1 g.
Dose formulations were administered by oral gavage once daily for 10 days at a dose volume of 2 mL/kg. Doses were based on the most recently recorded scheduled body weight.
Body weights were recorded daily on Days 11 through 14 of the predose phase. Body weights were collected for all animals daily during the dosing phase prior to dosing.
Descriptive statistics (n, mean, standard error of the mean, standard deviation) were completed. Additionally, one-way analysis of variance followed by Dunnett's post-hoc test were performed on body weight (cumulative body weight change), glucose (glucose percent change), and food consumption (cumulative food consumption). Area under the curve (for body weight, cumulative body weight change, daily body weight change, and food consumption) was computed for treatment groups. An appropriate comparison test, such as one-way analysis of variance and Dunnett's, was performed on the group means for the area under the curve computations. Any additional statistical analysis and interpretation of the results were the responsibility of the sponsor.

[2] = test system: C57BL/6 Diet Induced Obese (DIO) mice; experiment: Oral (P.O.) administration study in DIO mice: animal fate (mortality) and clinical observations; details: mouse, in vivo, 2 mg/kg
Method: Male C57BL/6 DIO mice were assigned to 12 groups, and doses of 2 mg/kg Celastrol (ERX1000-4), ERX1006, ERX1007, ERX1037, ERX1060, ERX1077, ERX1107, ERX1149, ERX1168, ERX1177, and Pristimerin were administered to Groups 2 through 12, respectively. Animals were dosed via oral gavage once daily for 10 days at a volume of 2 mL/kg. The vehicle control article was 1% methyl cellulose (400 cps) in citric acid and phosphate buffer.
Parameters assessed included mortality, clinical observations, body weights and food consumption and blood glucose evaluations.
All animals were anesthetized via carbon dioxide, sacrificed, and discarded without further evaluation on Day 11.

[3] = Compound solubility in PBS (pH 7.4), LC-MS/MS; details: PBS (pH 7.4), pH 7.4, aqueous buffer, kinetic from dmso stock
Method: • Test concentration: 100 μM (1% of DMSO) • Test systems: PBS (pH 7.4) • Incubation condition: shaken (1000 rpm) for 1 h at room temperature • Sample size: Duplicates (n=2) • Bioanalytical method: LC-MS/MS

[4] = 2 mg/kg, Phase Day PRED 11 (pre-dose baseline)
[5] = 2 mg/kg, Phase Day PRED 12 (pre-dose baseline)
[6] = 2 mg/kg, Phase Day PRED 13 (pre-dose baseline)
[7] = 2 mg/kg, Phase Day PRED 14 (pre-dose baseline)
[8] = DIO mice, 2 mg/kg, phase DSNG, Day 7
[9] = DIO mice, 2 mg/kg, phase DSNG, Day 8
[10] = DIO mice, 2 mg/kg, phase DSNG, Day 9
[11] = DIO mice, 2 mg/kg, phase DSNG, Day 10
[12] = DIO mice, 2 mg/kg, phase DSNG, Day 11
[13] = Day 1, DSNG phase, 2 mg/kg, N=5
[14] = Day 2, DSNG phase, 2 mg/kg, N=5
[15] = Day 3, DSNG phase, 2 mg/kg, N=5
[16] = Day 4, DSNG phase, 2 mg/kg, N=5
[17] = Day 5, DSNG phase, 2 mg/kg, N=5
[18] = Day 6, DSNG phase, 2 mg/kg, N=5
[19] = 24 h, Day 1, DSNG phase, 2 mg/kg, difference of group mean
[20] = 48 h, Day 2, DSNG phase, 2 mg/kg, difference of group mean
[21] = 72 h, Day 3, DSNG phase, 2 mg/kg, difference of group mean
[22] = 96 h, Day 4, DSNG phase, 2 mg/kg, difference of group mean
[23] = 120 h, Day 5, DSNG phase, 2 mg/kg, difference of group mean
[24] = 144 h, Day 6, DSNG phase, 2 mg/kg, difference of group mean
[25] = 168 h, DIO mice, 2 mg/kg, phase DSNG, Day 7, difference of group mean from vehicle group 1
[26] = 192 h, DIO mice, 2 mg/kg, phase DSNG, Day 8, difference of group mean from vehicle group 1
[27] = 216 h, DIO mice, 2 mg/kg, phase DSNG, Day 9, difference of group mean from vehicle group 1
[28] = 240 h, DIO mice, 2 mg/kg, phase DSNG, Day 10, difference of group mean from vehicle group 1
[29] = 264 h, DIO mice, 2 mg/kg, phase DSNG, Day 11, difference of group mean from vehicle group 1
[30] = Solubility (μM) Mean, Table 6-B, test concentration 100 μM (1% of DMSO), shaken (1000 rpm) 1 h at room temperature, n = 2

Row | SMILES | Body weight, Mean [1, 8] [g] | Body weight, Mean [1, 9] [g] | Body weight, Mean [1, 10] [g] | Body weight, Mean [1, 11] [g] | Body weight, Mean [1, 12] [g] | Body weight, Mean [1, 13] [g] | Body weight, Mean [1, 14] [g] | Body weight, Mean [1, 15] [g] | Body weight, Mean [1, 16] [g] | Body weight, Mean [1, 17] [g] | Body weight, Mean [1, 18] [g] | change in vivo at 2 mg/kg [1, 19] [%] | change in vivo at 2 mg/kg [1, 20] [%] | change in vivo at 2 mg/kg [1, 21] [%] | change in vivo at 2 mg/kg [1, 22] [%] | change in vivo at 2 mg/kg [1, 23] [%] | change in vivo at 2 mg/kg [1, 24] [%] | change in vivo at 2 mg/kg [1, 25] [%] | change in vivo at 2 mg/kg [1, 26] [%] | change in vivo at 2 mg/kg [1, 27] [%] | also measured
1 | CC1=C(O)C(=O)C=C2C1=CC=C1[C@@]2(C)CC[C@@]2(C)[C@@H]3C[C@](C)(N)CC[C@]3(C)CC[C@]12C [ERX1077] | 33.3 | 33.7 | 33.5 | 33.8 | 33.9 | 34.4 | 34.1 | 34.0 | 33.7 | 33.7 | 34.0 | 0 | -1 | 0 | 1 | 0 | 1 | -1 | 0 | 1 | Individual Body Weight ([1]; 2 mg/kg, Phase Day DSNG 1): 31.5 g and 32.8 g and 34.5 g and 38.3 g and 34.9 g; Individual Body Weight ([1]; 2 mg/kg, Phase Day DSNG 2): 31.2 g and 32.5 g and 34.1 g and 38.4 g and 34.4 g; Individual Body Weight [1, 4]: 32.6 g and 34.8 g and 36.1 g and 40.2 g and 38.0 g; Individual Body Weight [1, 5]: 33.2 g and 34.0 g and 35.8 g and 40.4 g and 37.0 g; Individual Body Weight [1, 6]: 31.6 g and 33.1 g and 35.6 g and 39.7 g and 36.9 g; Individual Body Weight [1, 7]: 32.7 g and 33.6 g and 35.7 g and 40.6 g and 36.6 g; change in vivo at 2 mg/kg [1, 28]: 1%; change in vivo at 2 mg/kg [1, 29]: -1%; Individual Animal Fate: Fate Status [2]: Scheduled Sacrifice; solubility at 1 h [3, 30]: 16.7 µM (≈ 7.04 µg/mL); solubility at 1 h ([3]; Solubility (μM), Table 6-D): 16.7 µM (≈ 7.04 µg/mL)
2 | CCOC1=C(C)C2=CC=C3[C@@](C)(CC[C@@]4(C)[C@@H]5C[C@](C)(C(N)=O)CC[C@]5(C)CC[C@]34C)C2=CC1=O [ERX1107] | 32.4 | 32.3 | 32.2 | 32.4 | 32.7 | 34.2 | 34.3 | 33.4 | 33.2 | 33.1 | 32.7 | 0 | -1 | -1 | -1 | -2 | -2 | -3 | -4 | -3 | Individual Body Weight ([1]; 2 mg/kg, Phase Day DSNG 1): 33.6 g and 35.8 g and 36.3 g and 31.2 g and 34.1 g; Individual Body Weight ([1]; 2 mg/kg, Phase Day DSNG 2): 33.5 g and 36.5 g (2×) and 31.0 g and 33.9 g; Individual Body Weight [1, 4]: 34.1 g (2×) and 36.6 g and 37.7 g and 36.2 g; Individual Body Weight [1, 5]: 35.1 g and 37.5 g and 37.9 g and 33.2 g and 34.6 g; Individual Body Weight [1, 6]: 34.9 g and 38.0 g and 37.6 g and 31.9 g and 33.8 g; Individual Body Weight [1, 7]: 35.1 g and 37.5 g and 37.7 g and 32.5 g and 34.6 g; change in vivo at 2 mg/kg [1, 28]: -3%; change in vivo at 2 mg/kg [1, 29]: -4%; Individual Animal Fate: Fate Status [2]: Scheduled Sacrifice; solubility at 1 h [3, 30]: 11.4 µM (≈ 5.45 µg/mL); solubility at 1 h ([3]; Solubility (μM), Table 6-D): 11.4 µM (≈ 5.45 µg/mL)
3 | CC1=C(O)C(=O)C=C2C1=CC=C1[C@@]2(C)CC[C@@]2(C)[C@@H]3C[C@](C)(CN(C)C)CC[C@]3(C)CC[C@]12C [ERX1060] | 33.8 | 33.3 | 33.1 | 33.5 | 34.4 | 34.6 | 34.1 | 34.4 | 34.1 | 34.2 | 34.4 | 1 | -1 | 1 | 2 | 1 | 3 | 1 | -1 | 0 | change in vivo at 2 mg/kg [1, 28]: 0%; change in vivo at 2 mg/kg [1, 29]: 1%; Individual Body Weight, PRED 11 ([1]; individual male DIO mouse of the 2 mg/kg group, pre-dose phase day 11 (baseline)): 36.2 g and 38.2 g and 35.9 g and 40.9 g and 38.9 g; Individual Body Weight, PRED 12 ([1]; individual male DIO mouse of the 2 mg/kg group, pre-dose phase day 12 (baseline)): 34.5 g and 36.6 g and 34.9 g and 41.2 g and 39.0 g; Individual Body Weight, PRED 13 ([1]; individual male DIO mouse of the 2 mg/kg group, pre-dose phase day 13 (baseline)): 33.2 g and 34.7 g and 33.5 g and 39.8 g and 37.1 g; Individual Body Weight, PRED 14 ([1]; individual male DIO mouse of the 2 mg/kg group, pre-dose phase day 14 (baseline)): 33.7 g and 35.1 g and 32.7 g and 40.6 g and 37.4 g; Individual Body Weight, DSNG 1 ([1]; individual male DIO mouse, 2 mg/kg, dosing phase day 1, 2 mg/kg): 32.9 g and 34.3 g and 31.3 g and 38.7 g and 35.6 g; Individual Body Weight, DSNG 2 ([1]; individual male DIO mouse, 2 mg/kg, dosing phase day 2, 2 mg/kg): 33.2 g and 34.1 g and 29.8 g and 38.2 g and 35.2 g; Individual Animal Fate: Fate Status [2]: Scheduled Sacrifice; solubility at 1 h [3, 30]: 1.11 µM (≈ 0.515 µg/mL); solubility at 1 h ([3]; Solubility (μM), Table 6-D): 1.11 µM (≈ 0.515 µg/mL)
